Assays:
Assay in all cases: microbe, parasite or virus in culture
[1] = test system: ABC clinical isolates with SUL-DUR MIC > 4 µg/mL; assay type: cell-based, Acinetobacter baumannii-calcoaceticus complex
Outline: (§1)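 Broth microdilution MICs following CLSI methods, interpreted with CLSI breakpoints where available. Sulbactam tested as twofold dilutions combined with fixed 4 µg/mL durlobactam.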

[2] = test system: A. baumannii clinical isolates; assay type: cell-based
Outline: as §1

[3] = test system: A. nosocomialis clinical isolate; assay type: cell-based; conditions: isolate ARC7023 (IHMA 2118812), France, BSI, 2019
Outline: as §1

[4] = test system: A. pittii clinical isolates; assay type: cell-based
Outline: as §1

For `CN(C)c1ccc(O)c2c1C[C@H]1C[C@H]3[C@H](N(C)C)C(O)=C(C(N)=O)C(=O)[C@@]3(O)C(O)=C1C2=O` [MIN], the MIC50 [1] was 2 mg/L, the MIC90 [1] was 16 mg/L and the “MIC Max” value [1] was >16 mg/L. The “MIC Min” value [1] was ≤0.12 mg/L, the “%NS (% non-susceptibility)” value ([1]; 64 non-clonal ABC isolates, 2023 CLSI breakpoints plus FDA breakpoint of 4 µg/mL for SUL-DUR) was 27% and the MIC ([2]; isolate ARC6644 (IHMA 1420327), Mexico, UTI, 2016) was 8 mg/L. For the same compound, the MIC ([2]; isolate ARC6645 (IHMA 1435703), France, UTI, 2016) was 0.5 mg/L, the MIC ([2]; isolate ARC6646 (IHMA 1484127), United States, RTI, 2016) was 8 mg/L and the MIC ([2]; isolate ARC6647 (IHMA 1386786), Argentina, RTI, 2016) was 1 mg/L. For the same compound, the MIC ([2]; isolate ARC6648 (IHMA 1407634), Spain, RTI, 2016) was 1 mg/L, the MIC ([2]; isolate ARC6650 (IHMA 1457337), Argentina, RTI, 2016) was 4 mg/L and the MIC ([2]; isolate ARC6652 (IHMA 1465642), Belgium, RTI, 2016) was ≤0.12 mg/L. The MIC ([2]; isolate ARC6653 (IHMA 1308777), Vietnam, RTI, 2016) was 16 mg/L, the MIC ([2]; isolate ARC6799 (IHMA 1562935), Spain, UTI, 2017) was >16 mg/L and the MIC ([2]; isolate ARC6800 (IHMA 1557526), Turkey, RTI, 2017) was 2 mg/L. The MIC ([2]; isolate ARC6801 (IHMA 1662094), Thailand, RTI, 2017) was 0.5 mg/L, the MIC ([2]; isolate ARC6802 (IHMA 1557073), Spain, UTI, 2017) was >16 mg/L and the MIC ([2]; isolate ARC6803 (IHMA 1589408), Belgium, UTI, 2017) was ≤0.12 mg/L. The MIC ([2]; isolate ARC6805 (IHMA 1558650), United States, RTI, 2017) was 8 mg/L, the MIC ([2]; isolate ARC6808 (IHMA 1557168), Spain, RTI, 2017) was 16 mg/L and the MIC ([2]; isolate ARC6809 (IHMA 1699528), Guatemala, RTI, 2017) was ≤0.12 mg/L. It also gave an MIC ([2]; isolate ARC6810 (IHMA 1699548), Guatemala, RTI, 2017) of 1 mg/L, an MIC ([2]; isolate ARC6812 (IHMA 1699530), Guatemala, RTI, 2017) of 0.25 mg/L and an MIC ([2]; isolate ARC6813 (IHMA 1699543), Guatemala, UTI, 2017) of 0.25 mg/L. For the same compound, the MIC ([2]; isolate ARC6814 (IHMA 1699512), Guatemala, RTI, 2017) was 4 mg/L, the MIC ([2]; isolate ARC6815 (IHMA 1699513), Guatemala, RTI, 2017) was 0.25 mg/L and the MIC ([2]; isolate ARC6816 (IHMA 1699521), Guatemala, RTI, 2017) was 8 mg/L. For the same compound, the MIC ([2]; isolate ARC6817 (IHMA 1699523), Guatemala, RTI, 2017) was ≤0.12 mg/L, the MIC ([2]; isolate ARC6818 (IHMA 1683261), Thailand, RTI, 2017) was ≤0.12 mg/L and the MIC ([2]; isolate ARC6819 (IHMA 1683267), Thailand, RTI, 2017) was 8 mg/L. For the same compound, the MIC ([2]; isolate ARC6820 (IHMA 1647876), Argentina, RTI, 2017) was 4 mg/L, the MIC ([2]; isolate ARC6821 (IHMA 1699517), Guatemala, RTI, 2017) was ≤0.12 mg/L and the MIC ([2]; isolate ARC6822 (IHMA 1637626), Guatemala, RTI, 2017) was 0.25 mg/L. For the same compound, the MIC ([2]; isolate ARC6823 (IHMA 1620872), Greece, SSSI, 2017) was 8 mg/L, the MIC ([2]; isolate ARC6824 (IHMA 1625487), Argentina, BSI, 2017) was 2 mg/L and the MIC ([2]; isolate ARC6937 (IHMA 1562926), Spain, UTI, 2017) was >16 mg/L. It also gave an MIC ([2]; isolate ARC6950 (IHMA 1820064), Israel, RTI, 2018) of 2 mg/L, an MIC ([2]; isolate ARC6953 (IHMA 1909827), Turkey, IAI, 2018) of 0.5 mg/L and an MIC ([2]; isolate ARC6954 (IHMA 1838192), Guatemala, SSSI, 2018) of 0.5 mg/L. It also gave an MIC ([2]; isolate ARC6955 (IHMA 1825425), United States, RTI, 2018) of 2 mg/L, an MIC ([2]; isolate ARC7008 (IHMA 2009813), Thailand, BSI, 2019) of 4 mg/L and an MIC ([2]; isolate ARC7009 (IHMA 2043611), United States, UTI, 2019) of 2 mg/L. For the same compound, the MIC ([2]; isolate ARC7010 (IHMA 2043398), United States, RTI, 2019) was 1 mg/L, the MIC ([2]; isolate ARC7011 (IHMA 2104553), Germany, RTI, 2019) was 2 mg/L and the MIC ([2]; isolate ARC7012 (IHMA 2010001), Thailand, RTI, 2019) was 2 mg/L. The MIC ([2]; isolate ARC7013 (IHMA 1962831), Argentina, RTI, 2019) was 1 mg/L, the MIC ([2]; isolate ARC7014 (IHMA 2045328), Guatemala, IAI, 2019) was 16 mg/L and the MIC ([2]; isolate ARC7015 (IHMA 2045327), Guatemala, UTI, 2019) was 0.25 mg/L. It also gave an MIC ([2]; isolate ARC7016 (IHMA 2148441), Brazil, BSI, 2019) of 0.5 mg/L, an MIC ([2]; isolate ARC7017 (IHMA 2148446), Brazil, BSI, 2019) of 0.25 mg/L and an MIC ([2]; isolate ARC7018 (IHMA 2045454), Guatemala, IAI, 2019) of 0.25 mg/L. For the same compound, the MIC ([2]; isolate ARC7019 (IHMA 2114463), Thailand, RTI, 2019) was 1 mg/L, the MIC ([2]; isolate ARC7020 (IHMA 2045326), Guatemala, RTI, 2019) was 0.5 mg/L and the MIC ([2]; isolate ARC7021 (IHMA 1966347), Guatemala, RTI, 2019) was 0.25 mg/L. It also gave an MIC ([2]; isolate ARC7022 (IHMA 2045319), Guatemala, IAI, 2019) of 1 mg/L, an MIC ([2]; isolate ARC7024 (IHMA 2059448), Turkey, RTI, 2019) of 2 mg/L and an MIC ([2]; isolate ARC7025 (IHMA 2002121), Spain, RTI, 2019) of 8 mg/L. The MIC ([2]; isolate ARC7026 (IHMA 2104494), Guatemala, BSI, 2019) was 2 mg/L, the MIC ([2]; isolate ARC7082 (IHMA 2160640), Belgium, BSI, 2020) was 16 mg/L and the MIC ([2]; isolate ARC7083 (IHMA 2163687), United States, RTI, 2020) was 16 mg/L. The MIC ([2]; isolate ARC7084 (IHMA 2189596), Germany, RTI, 2020) was 1 mg/L, the MIC ([2]; isolate ARC7085 (IHMA 2205747), Guatemala, IAI, 2020) was 1 mg/L and the MIC ([2]; isolate ARC7086 (IHMA 2207563), Israel, RTI, 2020) was 2 mg/L. For the same compound, the MIC ([2]; isolate ARC7088 (IHMA 2215554), Turkey, BSI, 2020) was 16 mg/L, the MIC ([2]; isolate ARC7089 (IHMA 2240345), Argentina, BSI, 2020) was 2 mg/L and the MIC ([2]; isolate ARC7090 (IHMA 2244410), Poland, RTI, 2020) was 4 mg/L. The MIC ([2]; isolate ARC7091 (IHMA 2244564), Australia, RTI, 2020) was ≤0.12 mg/L, the MIC ([2]; isolate ARC7092 (IHMA 2258772), United States, BSI, 2020) was 4 mg/L and the MIC ([2]; isolate ARC7093 (IHMA 2258783), United States, RTI, 2020) was 8 mg/L. For the same compound, the MIC ([2]; isolate ARC7094 (IHMA 2296423), Turkey, RTI, 2020) was 2 mg/L, the MIC ([2]; isolate ARC7095 (IHMA 2320843), Turkey, BSI, 2020) was 8 mg/L and the MIC ([2]; isolate ARC7156 (IHMA 2455450), Greece, RTI, 2021) was >16 mg/L. The MIC ([2]; isolate ARC7158 (IHMA 2523738), Italy, BSI, 2021) was 2 mg/L, the MIC ([2]; isolate ARC7159 (IHMA 2456229), Malaysia, RTI, 2021) was 4 mg/L and the MIC ([2]; isolate ARC7160 (IHMA 2458626), Thailand, RTI, 2021) was 1 mg/L. It also gave an MIC ([2]; isolate ARC7161 (IHMA 2429252), Ukraine, RTI, 2021) of 16 mg/L, an MIC ([2]; isolate ARC7162 (IHMA 2411847), United States, BSI, 2021) of 2 mg/L and an MIC ([2]; isolate ARC7163 (IHMA 2477704), United States, BSI, 2021) of 2 mg/L. It also gave an MIC [3] of 0.5 mg/L, an MIC ([4]; isolate ARC6949 (IHMA 1898982), Romania, RTI, 2018) of 0.5 mg/L and an MIC ([4]; isolate ARC6951 (IHMA 1776233), Philippines, RTI, 2018) of 0.25 mg/L. The MIC ([4]; isolate ARC6952 (IHMA 1899008), Romania, RTI, 2018) was 1 mg/L and the MIC ([4]; isolate ARC7087 (IHMA 2212062), Colombia, BSI, 2020) was ≤0.12 mg/L.

Source: paper PMC10648852, “Molecular drivers of resistance to sulbactam-durlobactam in contemporary clinical isolates of Acinetobacter baumannii” (Antimicrobial Agents and Chemotherapy, 2023)
